Assay results as given in patent US7105675B2, “Pyridomorphinans, thienomorphinans and use thereof” (Southern Research Institute, priority 1999, dated 2006).
Where two headings read alike, the source gives them in different places.

Columns and labels:
μ opioid receptor = biological target: T1, μ opioid receptor (Rattus norvegicus, UniProt P33535); assay: Radioligand binding, mu sites, displacement of [3H]DAMGO in rat brain membranes
T1 construct: Rat membranes were prepared each day using a partially thawed frozen rat brain; from tissue; host or cells: rat brain membranes
Method: (§1) Radioligand Binding Assays. Mu binding sites were labeled using [^3H]DAMGO (1–3 nM). Rat membranes were prepared each day using a partially thawed frozen rat brain which was homogenized with a polytron in 10 mL/brain of ice cold 10 mM Tris-HCl, pH 7.0. Membranes were then centrifuged twice at 30,000 g for 10 min and resuspended with ice-cold buffer following each centrifugation. After the second centrifugation, the membranes were resuspended in 50 mM Tris-HCl, pH 7.4 (50 mL/brain) at 25° C. Incubations proceeded for 2 h at 25° C. in 50 mM Tris-HCl, pH 7.4, along with a protease inhibitor cocktail (PIC). The nonspecific binding was determined using 20 μM of levallorphan. Delta binding sites were labeled using [^3]DADLE (2 nM) and rat brain membranes. Rat membranes were prepared each day using a partially thawed frozen rat brain which was homogenized with a polytron in 10 mL/brain of ice cold 10 mM Tris-HCl, pH 7.0. Membranes were then centrifuged twice at 30,000 g for 10 min and resuspended with ice-cold buffer following each centrifugation. After the second centrifugation, the membranes were resuspended in 50 mM Tris-HCl, pH 7.4 (50 mL/brain) at 25° C. Incubations proceeded for 2 h at 25° C. in 50 mM Tris-HCl pH 7.4, containing 100 mM choline chloride, 3 mM MnCl2, and 100 nM DAMGO to block binding to μ sites, and PIC. Nonspecific binding was determined using 20 μM levallorphan. Kappa binding sites were labeled using [^3H]U69,593 (2 nM). Guinea pig brain membranes were prepared each day using partially thawed guinea pig brain which was homogenized with a polytron in 10 mL/brain of ice cold 10 mM Tris-HCl pH 7.0. The membranes were then centrifuged twice at 30,000 g for 10 min and resuspended with ice-cold buffer following each centrifugation. After the second centrifugation, the membranes were resuspended in 50 mM Tris-HCl, pH 7.4 (75 mL/brain) at 25° C. Incubations proceeded for 2 h at 25° C. in 50 mM Tris-HCl, pH 7.4, containing 1 μg/mL of captopril and PIC. Nonspecific binding was determined using 1 μM U69,593. Each ^3H ligand was displaced by 8–10 concentrations of test drug, two times. Compounds were prepared as 1 mM solution with 10 mM Tris buffer (pH 7.4) containing 10% DMSO before drug dilution. All drug dilutions were done at 10 mM Tris-HCl, pH 7.4, containing 1 mg/mL bovine serum albumin. All washes were done with ice-cold 10 mM Tris-HCl, pH 7.4. The IC50 and slope factor (N) were obtained by using the program MLAB-PC (Civilized Software, Bethesda, Md.). Ki values were calculated according to the equation Ki=IC50/(1+[L]/Kd).

κ1 opioid receptor = biological target: T2, κ1 opioid receptor (Cavia porcellus, UniProt P41144); assay: Radioligand binding, kappa sites, displacement of [3H]U69,593 in guinea pig brain membranes
T2 construct: Guinea pig brain membranes were prepared each day using partially thawed guinea pig brain; from tissue; host or cells: guinea pig brain membranes
Method: as §1

[1] = biological target: T3, δ opioid receptor (DPDPE) in MVD (Mus musculus, UniProt P32300); assay: Antagonist activity against DPDPE in electrically stimulated mouse vas deferens (MVD); assay type: cell-based; details: for antagonist activity DPDPE (δ) MVD IC50 ratio: 1 μM compound, 30 min incubation, IC50 of DPDPE with antagonist divided by control IC50; for Ke selectivity ratio μδ: Ke GPI (μ) over Ke MVD (δ)
T3 construct: Electrically-induced smooth muscle contractions of mouse vas deferens and strips of guinea pig ileum longitudinal muscle myenteric plexus were used; from tissue; host or cells: mouse vas deferens (male ICR mice)
Method: (§2) Bioassays in GPI and MVD smooth muscle preparations. Electrically-induced smooth muscle contractions of mouse vas deferens and strips of guinea pig ileum longitudinal muscle myenteric plexus were used. Tissues came from maile ICR mice weighing 25–40 g and male Hartley guinea pigs weighing 250–500 g. The tissues were tied to gold chain with suture silk, suspended in 20 mL baths containing 37° C. oxygenated (95% O2, 5% CO2) Krebs bicarbonate solution (magnesium free for the MVD), and allowed to equilibrate for 15 min. The tissues were then stretched to optimal length previously determined to be 1 g tension (0.5 g for MVD) and allowed to equilibrate for 15 min. The tissues were stimulated transmurally between platinum wire electrodes at 0.1 Hz, 0.4 ms pulses (2-ms pulses for MVD), and supramaximal voltage. An initial dose-response curve of DPDPE or PL-017 was constructed at the start of each assay to establish tissue effects, allowing each tissue to be used as its own control.
(§3) Tissues not producing typical results were not used. Experimental compounds were added to the baths in 14–60 μL volumes. Succeeding doses of argonist were added cumulatively to the bath at 3 minute intervals to produce a concentration-response curve. The tissues were then washed extensively with fresh buffer until the original contraction height was re-established. […] Antagonist effects to DPDPE and PL-017 were assayed after incubation of the tissues with 1 μM concentration of the compound in the bath for 30 minutes. The tissues were then washed with fresh buffer for 30 min, and the agonist dose-response curve was repeated. Rightward shifts in the dose-response curves were calculated by dividing the antagonized dose-response curve IC50 value by the unantagoniced IC50 value. IC50 values represent the mean of two to four tissues. IC50 estimates and their associated standard errors were determined by using a computerized nonlinear least-squares method.

[2] = system: μ opioid receptor (PL017) in GPI; assay: Antagonist activity against PL-017 in electrically stimulated guinea pig ileum (GPI); assay type: cell-based; details: for antagonist activity PL017 (μ) GPI IC50 ratio: 1 μM compound, 30 min incubation, IC50 of PL-017 with antagonist divided by control IC50; for antagonist activity PL017 (μ) GPI Ke: Ke = [antagonist]/(IC50 ratio − 1), PL-017 as agonist, n = 3
Method: as §2, §3

mouse vas deferens = assay: Agonist activity in MVD smooth muscle preparation, inhibition of contraction; assay type: cell-based; details: read-out: agonist activity MVD IC50 (nM) or % max resp
Method: as §2, §3

[3] = system: guinea pig ileum longitudinal muscle myenteric plexus; assay: Agonist activity in GPI smooth muscle preparation, inhibition of contraction; assay type: cell-based; details: for inhibition at 1 µM: Cavia porcellus, read-out: agonist activity GPI IC50 (nM) or % max resp
Method: as §2, §3

δ opioid receptor = δ opioid receptor (Rattus norvegicus, UniProt P33533); assay: Radioligand binding, delta sites, displacement of [3H]DADLE in rat brain membranes; parameters: Rat membranes were prepared each day using a partially thawed frozen rat brain; from tissue; host or cells: rat brain membranes; details: for Selectivity Ratio κ1δ / Selectivity Ratio μ/δ: ratio of Ki values
Method: as §1

[4] = pyridomorphinans, [3H]DAMGO (1.4–2.0 nM), rat brain membranes, read-out: Ki (nM) ± SEM μ
[5] = pyridomorphinans, [3H]U69,593 (1.2–2.2 nm), guinea pig brain membranes, read-out: Ki (nM) ± SEM κ1

T2 sequence (P41144 whole entry): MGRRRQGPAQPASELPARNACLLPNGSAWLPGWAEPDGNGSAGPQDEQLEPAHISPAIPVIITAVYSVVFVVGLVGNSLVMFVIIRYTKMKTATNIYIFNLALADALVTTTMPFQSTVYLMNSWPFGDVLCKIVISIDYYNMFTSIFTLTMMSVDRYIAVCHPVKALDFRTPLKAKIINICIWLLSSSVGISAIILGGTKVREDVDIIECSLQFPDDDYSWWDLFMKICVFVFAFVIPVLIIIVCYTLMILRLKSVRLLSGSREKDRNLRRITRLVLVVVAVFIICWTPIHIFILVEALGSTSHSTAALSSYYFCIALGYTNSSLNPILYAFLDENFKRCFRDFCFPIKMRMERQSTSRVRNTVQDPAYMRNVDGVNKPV
T3 sequence (P32300 whole entry): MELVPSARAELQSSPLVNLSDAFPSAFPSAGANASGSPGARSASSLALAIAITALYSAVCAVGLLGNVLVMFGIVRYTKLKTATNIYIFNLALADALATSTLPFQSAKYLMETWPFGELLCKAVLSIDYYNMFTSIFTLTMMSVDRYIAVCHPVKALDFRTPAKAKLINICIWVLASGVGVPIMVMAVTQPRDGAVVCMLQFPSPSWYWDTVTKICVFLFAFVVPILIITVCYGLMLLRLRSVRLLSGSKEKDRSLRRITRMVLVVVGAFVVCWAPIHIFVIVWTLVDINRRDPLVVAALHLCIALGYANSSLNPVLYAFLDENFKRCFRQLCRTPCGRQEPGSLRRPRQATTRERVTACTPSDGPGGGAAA
T1 sequence (P33535 whole entry): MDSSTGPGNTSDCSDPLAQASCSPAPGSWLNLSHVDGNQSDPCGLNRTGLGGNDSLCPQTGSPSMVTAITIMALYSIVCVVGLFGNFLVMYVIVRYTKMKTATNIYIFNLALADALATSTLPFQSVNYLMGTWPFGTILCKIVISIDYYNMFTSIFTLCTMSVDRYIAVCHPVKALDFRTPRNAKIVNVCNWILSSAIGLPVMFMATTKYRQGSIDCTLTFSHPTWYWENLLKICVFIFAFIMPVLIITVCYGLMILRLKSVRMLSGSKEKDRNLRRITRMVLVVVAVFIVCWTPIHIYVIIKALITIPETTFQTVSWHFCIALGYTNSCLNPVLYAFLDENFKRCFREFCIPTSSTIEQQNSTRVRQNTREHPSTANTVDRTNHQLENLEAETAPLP
δ opioid receptor, sequence (P33533 whole entry): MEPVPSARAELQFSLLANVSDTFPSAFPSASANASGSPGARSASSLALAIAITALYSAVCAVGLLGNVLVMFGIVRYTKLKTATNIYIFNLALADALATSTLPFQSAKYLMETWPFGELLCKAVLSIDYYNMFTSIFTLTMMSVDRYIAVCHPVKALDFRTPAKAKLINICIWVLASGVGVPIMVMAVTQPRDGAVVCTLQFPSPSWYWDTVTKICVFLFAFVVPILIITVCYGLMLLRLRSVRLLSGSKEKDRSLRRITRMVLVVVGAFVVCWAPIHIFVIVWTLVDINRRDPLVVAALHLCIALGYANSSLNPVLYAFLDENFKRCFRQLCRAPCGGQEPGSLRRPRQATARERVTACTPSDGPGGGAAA

Structure (SMILES) | Ki (μ opioid receptor) [nM] | Ki (κ1 opioid receptor) [nM] | Kb [1] [nM] | antagonist activity DPDPE (δ) MVD IC50 ratio [1] | Ke selectivity ratio μδ [1] | antagonist activity PL017 (μ) GPI IC50 ratio [2] | antagonist activity PL017 (μ) GPI Ke [2] [nM] | inhibition at 1 µM (mouse vas deferens) [%] | inhibition at 1 µM [3] [%] | Ki (δ opioid receptor) [nM] | Selectivity Ratio κ1δ (δ opioid receptor; thienomorphinans) | Selectivity Ratio μ/δ (δ opioid receptor; thienomorphinans) | agonist activity GPI IC50 (nM) or % max resp ([3]; percentage inhibition of contraction at 1 μM) [%] | Selectivity Ratio κ1δ (δ opioid receptor; pyridomorphinans) | Selectivity Ratio μ/δ (δ opioid receptor; pyridomorphinans) | Ki (μ opioid receptor; [4]) [nM] | Ki (κ1 opioid receptor; [5]) [nM] | Ki (δ opioid receptor; pyridomorphinans, [3H]DADLE (1.3–2.0 nM), rat brain membranes, 100 nM DAMGO to block μ-sites, read-out: Ki (nM) ± SEM δ) [nM]
NC(=O)c1c(N)sc2c1[C@@H]1Oc3c(O)ccc4c3[C@@]13CCN(CC1CC1)[C@H](C4)[C@]3(O)C2 [Compound 8e, 5′-Amino-4′-aminocarbonyl-17-(cyclopropylmethyl)-6,7-didehydro-3,14-dihydroxy-4,5α-epoxythieno[2′,3′:7,6]morphinan] | 21 ± 1.3 | 2 ± 0.2 | 10 | 118.6 ± 38.4 | 2.4 | 47.8 ± 10.7 | 24 | 5 | 4 | 3.7 ± 0.2 | 0.5 | 5.7 |  |  |  |  |  | 
Nc1sc2c(c1C(=O)OCc1ccccc1)[C@@H]1Oc3c(O)ccc4c3[C@@]13CCN(CC1CC1)[C@H](C4)[C@]3(O)C2 [Compound 8d, 5′-Amino-4′-benzyloxycarbonyl-17-(cyclopropylmethyl)-6,7-didehydro-3,14-dihydroxy-4,5α-epoxythieno[2′,3′:7,6]morphinan] | 61 ± 3 | 48 ± 3 | 5 | 289 ± 13 |  |  |  | 11 | 40 | 7 ± 0.3 | 6.9 | 8.7 | 40 |  |  |  |  | 
Nc1sc2c(c1C(=O)c1ccccc1)[C@@H]1Oc3c(O)ccc4c3[C@@]13CCN(CC1CC1)[C@H](C4)[C@]3(O)C2 [Compound 8f, 5′-Amino-4′-benzoyl-17-(cyclopropylmethyl)-6,7-didehydro-3,14-dihydroxy-4,5α-epoxythieno[2′,3′:7,6]morphinan] | 50 ± 3 | 14 ± 0.7 | 46 | 24.4 ± 4.0 | 1.3 | 21.6 ± 7.7 | 62 | 15 | 25 | 14 ± 0.7 | 1.0 | 3.6 |  |  |  |  |  | 
COC(=O)c1c(N)sc2c1[C@@H]1Oc3c(O)ccc4c3[C@@]13CCN(CC1CC1)[C@H](C4)[C@]3(O)C2 [Compound 8b, 5′-Amino-4′-carbomethoxy-17-(cyclopropylmethyl)-6,7-didehydro-3,14-dihydroxy-4,5α-epoxythieno[2′,3′:7,6]morphinan] | 29 ± 4 | 8.7 ± 0.34 | 21 | 53.5 ± 10.1 | 1.7 | 39.1 ± 11.6 | 35 | 0 | 0 | 6.6 ± 0.3 | 1.3 | 4.4 |  |  |  |  |  | 
Oc1ccc2c3c1OC1c4ncc(Br)cc4CC4(O)C(C2)N(CC2CC2)CCC314 (stereo not drawn) [Compound 7b, 5′-Bromo-17-(cyclopropylmethyl)-6,7-didehydro-3,14-dihydroxy-4,5α-epoxypyrido[2′,3′:6,7]morphinan] | 15.5 ± 1 | 55.7 ± 7 | 3.1 | 325 ± 127 | 14 | 43.9 ± 25.6 | 23 | 0 | 0 | 1.2 ± 0.13 |  |  |  | 46 | 13 |  |  | 
CCOC(=O)c1cnc2c(c1)C[C@@]1(O)[C@H]3Cc4ccc(O)c5c4[C@@]1(CCN3CC1CC1)[C@H]2O5 [Compound 7d, 5′-Carbethoxy-17-(cyclopropylmethyl)-6,7-didehydro-3,14-dihydroxy-4,5α-epoxypyrido[2′,3′:6,7]morphinan] |  |  | 20 |  |  |  | 74 | 0 | 0 |  |  |  |  |  |  | 37 ± 3.4 | 9.6 ± 0.93 | 
N#Cc1cnc2c(c1)CC1(O)C3Cc4ccc(O)c5c4C1(CCN3CC1CC1)C2O5 (stereo not drawn) [Compound 7c, 5′-Cyano-17-(cyclopropylmethyl)-6,7-didehydro-3,14-dihydroxy-4,5α-epoxypyrido[2′,3′:6,7]morphinan] | 16 ± 1.8 | 33.9 ± 2 | 44 | 23.6 ± 2.2 |  | 2.2 ± 1.1 |  | 0 | 0 | 4.5 ± 0.28 |  |  |  | 7.5 | 3.6 |  |  | 
Nc1cnc2c(c1)C[C@@]1(O)[C@H]3Cc4ccc(O)c5c4[C@@]1(CCN3CC1CC1)[C@H]2O5 [Compound 7f, 5′-Amino-17-(cyclopropylmethyl)-6,7-didehydro-3,14-dihydroxy-4,5α-epoxypyrido[2′,3′:6,7]morphinan] |  |  | 26 | 43.3 ± 9.0 | 1.9 | 23.4 ± 4.8 | 49 | 6 | 0 |  |  |  |  | 1.5 | 1.6 | 12.8 ± 0.93 | 12 ± 1.2 | 8 ± 0.3
